The nature of one series: Acute toxicity in mice. Format: in vivo. The conditions noted are these: mouse, in vivo.
The nature of the next series: Solubility. Format: physicochemical.
In the next series the test system is mice. The series can be described thus: Acute toxicity in mice. Format: in vivo.

The record followed here is patent US4329426A, “Process for preparation of antibiotics and biologically pure culture for use therein” (Kowa Company, Ltd., priority 1978, dated 1982).

In general, LD50 refers to the dose expected to kill half of the subjects tested. The compound `CNCC1CCC(N)C(OC2C(N)CC(OC)C(N(C)C(=O)CN)C2O)O1` (stereo not drawn) [KA-7038 I] returned an LD50 in the series “Acute toxicity in mice” (iv.) of more than 100 mg/kg. For the same compound, the LD50 in the series “Acute toxicity in mice” (sc.) was more than 400 mg/kg. Also, in “Solubility”, the Solubility in acetone entry is “sightly soluble”; the “Solubility in chloroform, ethyl acetate, diethyl ether, hexane and petroleum ether” value (“Solubility in chloroform, ethyl acetate” for short) was “Insoluble”; the Solubility in ethanol result is reported as “little soluble”; the Solubility in methanol entry was “Easily soluble”. Also, in “Solubility”, the Solubility in water result is listed as “Very readily soluble”.

With `CNC1C(O)C(OC2OC(CN)CCC2N)C(N)C(O)C1OC` (stereo not drawn) [KA-7038 IV], the LD50 in “Acute toxicity in mice” (iv.) is more than 300 mg/kg. The compound further returned an LD50 in the series “Acute toxicity in mice” (sc.) of more than 600 mg/kg. Moreover, in “Solubility”, the Solubility in acetone result was “slightly soluble”; the “Solubility in chloroform, ethyl acetate” value is on record as “Insoluble”; the Solubility in ethanol entry is given as “little soluble”; the Solubility in methanol result is on record as “Easily soluble”. Also, in the series “Solubility”, the Solubility in water entry is “Very readily soluble”.

For `CNC1C(O)CC(N)C(OC2OC(CN)CCC2N)C1O` (stereo not drawn) [KA-7038 II], in “Acute toxicity in mice” (iv.), the LD50 was more than 300 mg/kg. The LD50 in “Acute toxicity in mice” (sc.) is more than 600 mg/kg. In the series “Solubility”, the Solubility in acetone result is recorded as “slightly soluble”; the “Solubility in chloroform, ethyl acetate” value was “Insoluble”; the Solubility in ethanol result is on record as “little soluble”; the Solubility in methanol entry is reported as “Easily soluble”. Further, in the series “Solubility”, the Solubility in water entry was “Very readily soluble”.

In the series “Acute toxicity in mice” (iv.), `CNCC1CCC(N)C(OC2C(N)CC(OC)C(NC)C2O)O1` (stereo not drawn) [KA-7038 III] returned an LD50 of more than 300 mg/kg. This compound showed an LD50 in “Acute toxicity in mice” (sc.) of more than 600 mg/kg. Moreover, in the series “Solubility”, the Solubility in acetone entry was “slightly soluble”; the “Solubility in chloroform, ethyl acetate” value is “Insoluble”; the Solubility in ethanol result is reported as “little soluble”; the Solubility in methanol entry was “Easily soluble”. For the same compound, in “Solubility”, the Solubility in water result is on record as “Very readily soluble”.

As to `CNCC1CCC(N)C(OC2C(N)CC(OC)C(NC)C2O)O1` (stereo not drawn) [KA-7038 VI], the LD50 in the series on mice (iv.) is on record as more than 300 mg/kg. The LD50 with mice (sc.) is given as more than 600 mg/kg. In addition, in the series “Solubility”, the Solubility in acetone result is listed as “slightly soluble”; the “Solubility in chloroform, ethyl acetate” value was “Insoluble”; the Solubility in ethanol entry is given as “little soluble”; the Solubility in methanol result was “Easily soluble”. The Solubility in water entry in the series “Solubility” is listed as “Very readily soluble”.

As to `CNC1C(OC)CC(N)C(OC2OC(CN)CCC2N)C1O` (stereo not drawn) [KA-7038 V], in the series “Acute toxicity in mice” (iv.), the LD50 was more than 300 mg/kg. In the series “Acute toxicity in mice” (sc.), this compound displayed an LD50 of more than 600 mg/kg. Besides, in the series “Solubility”, the Solubility in acetone result was “slightly soluble”; the “Solubility in chloroform, ethyl acetate” value is given as “Insoluble”; the Solubility in ethanol result is “little soluble”; the Solubility in methanol entry is listed as “Easily soluble”. Besides, in the series “Solubility”, the Solubility in water entry is reported as “Very readily soluble”.
